Laboratory results published in patent US11090319B2, “Therapeutic uses of pharmaceutical compositions comprising cyclic boronic acid ester derivatives” (Melinta Subsidiary Corp., priority 2010, dated 2021).
Read-outs that look alike come from different tables or passages of the source.

Tests used:
SA1000 Salmonella CMY-2 = experiment: Ceftazidime MIC with fixed concentration of BLI; type: cell-based; conditions: SA1000 CMY-2; for Ceftazidime MIC with cyclic boronic acid ester derivative: derivative at 10 μg/mL
Description: (§1) Next, ceftazidime potentiation activity of several cyclic boronic acid ester derivatives was tested using a larger panel of strains expressing β-lactamase hydrolyzing enzymes. Ceftazidime MICs were determined alone and in the presence of fixed concentrations of various cyclic boronic acid ester derivatives.

[1] = tested on: KP1013 Klebsiella pneumoniae CMY-2; experiment: Ceftazidime MIC with fixed concentration of BLI; type: cell-based; conditions: KP1013 CMY-2; for Ceftazidime MIC with cyclic boronic acid ester derivative: derivative at 10 μg/mL
Description: as §1

[2] = tested on: CF1001 Citrobacter freundii Hyper AmpC expression; experiment: Ceftazidime MIC with fixed concentration of BLI; type: cell-based; conditions: for Ceftazidime MIC with cyclic boronic acid ester derivative: derivative at 10 μg/mL
Description: as §1

[3] = tested on: AB1052 Acinetobacter baumannii OXA-24; experiment: Ceftazidime MIC with fixed concentration of BLI; type: cell-based; conditions: AB1052 OXA-24; for Ceftazidime MIC with cyclic boronic acid ester derivative: derivative at 10 μg/mL
Description: as §1

[4] = tested on: KP1006 Klebsiella pneumoniae CTX-M2; experiment: Ceftazidime MIC with fixed concentration of BLI; type: cell-based; conditions: for Ceftazidime MIC with cyclic boronic acid ester derivative: derivative at 10 μg/mL
Description: as §1

[5] = tested on: KP1014 Klebsiella pneumoniae Vim-1; experiment: Ceftazidime MIC with fixed concentration of BLI; type: cell-based; conditions: KP1014 Vim-1; for Ceftazidime MIC with cyclic boronic acid ester derivative: derivative at 10 μg/mL
Description: as §1

[6] = tested on: KP1008 Klebsiella pneumoniae KPC-2; experiment: Checkerboard assay, biapenem potentiation; conditions: Biapenem MIC 8-fold; KP1008 KPC-2 class A
KPC-3, lysate of EC1007 [7] = target: T1, KPC-3, lysate of EC1007 (Klebsiella pneumoniae, UniProt Q9F663, H272Y); experiment: Inhibition of ceftazidime hydrolysis by bacterial lysate
[8] = Single dose pharmacokinetics and oral bioavailability in rats, Table 15; type: in vivo, Sprague-Dawley (SD) rats
Description: An in vivo model can be used to evaluate the single dose pharmacokinetic properties and absolute oral bioavailability of a test compound. As described more specifically below, a test compound is administered to Sprague-Dawley (SD) rats either intravenously or orally in a crossover study design and the resulting pharmacokinetic properties and oral bioavailability are measured. […] Plasma samples (0.3 ml) were collected from jugular vein cannula at 0.17, 0.33, 0.47, 0.58, 0.68, 0.75, 1, 2, 3, 4, and 6 hrs after the dosing. […] The samples were mixed and centrifuged for 30 min at 3000×g. 150 μL of supernatant was removed and added to 450 μL of water. HPLC-mass spectrometry: An Agilent 1100HPLC pump, HTC PAL autosampler and a Sciex […] mass spectrometer were used for separation and quantification. Compound 62 and its internal standard were detected using +ESI. Compound 5 and its internal standard were detected using -ESI. LC/MS/MS: 1) Column: Chromolith FastGradient RP-18e, 50×2 mm; 2) Mobile phase A: Aqueous Water with 0.1% TFA, Orgainic phase B: Acetonitrile with 0.1% TFA; Flow Rate: 600 μL/min; Injection volume: 10 μL; […] Plasma concentrations were modeled using WinNonlin® (Pharsight Corp, Mountain View, Calif.). In this experiment, three male Sprague Dawley rats were given Compound 5 by intravenous or oral route. At designated time points, bloods were collected and analyzed. […] Plasma samples were collected at designated time points and analyzed for the presence of Compound 5. […] Male rats (non-fasted) were orally administered 50 mg/kg of the prodrug Compound 62.

[9] = tested on: strains expressing class A ESBLs; type: cell-based
Description: Selected β-lactamase inhibitors were also tested for their ability to potentiate the monobactam tigemonam.

[10] = tested on: EC1007 Escherichia coli KPC-3; experiment: Checkerboard assay, biapenem potentiation; conditions: Biapenem MIC 8-fold; EC1007 KPC-3 class A
KPC-3, lysate of EC1007 [11] = target: T1, KPC-3, lysate of EC1007; experiment: Inhibition of biapenem hydrolysis by bacterial lysate
[12] = Klebsiella pneumoniae, read-out: Ceftazidime MIC Alone

T1 sequence (Q9F663 whole entry H272Y, looked up): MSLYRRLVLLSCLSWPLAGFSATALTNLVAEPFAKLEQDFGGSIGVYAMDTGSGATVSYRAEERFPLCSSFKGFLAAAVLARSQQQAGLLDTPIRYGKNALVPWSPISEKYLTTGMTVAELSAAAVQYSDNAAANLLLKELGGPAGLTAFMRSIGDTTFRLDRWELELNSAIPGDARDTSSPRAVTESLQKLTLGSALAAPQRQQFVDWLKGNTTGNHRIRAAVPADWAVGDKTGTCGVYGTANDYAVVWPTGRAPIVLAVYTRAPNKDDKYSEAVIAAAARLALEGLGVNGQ

## CC(C)(O/N=C(\C(=O)N[C@@H]1C(=O)N2C(C(=O)[O-])=C(C[n+]3ccccc3)CS[C@H]12)c1csc(N)n1)C(=O)O [Ceftazidime, reference compound]
SA1000 Salmonella CMY-2; Salmonella, read-out: Ceftazidime MIC Alone
  MIC: > 8 µg/mL
[1]; [12]
  MIC: > 8 µg/mL
[2]; Citrobacter freundii, read-out: Ceftazidime MIC Alone
  MIC: > 8 µg/mL
[3]; Acinetobacter baumannii, read-out: Ceftazidime MIC Alone
  MIC: > 8 µg/mL
[4]; [12]
  MIC: 1 to 8 µg/mL
[5]; [12]
  MIC: > 8 µg/mL

## CC(=O)N[C@H]1CCC(CC(=O)O)OB1O (stereo partly drawn) [Compound 3, 2-((3R)-3-acetamido-2-hydroxy-1,2-oxaborinan-6-yl)acetic acid]
[6]
  MPC8: X (MPC8 of less than 0.16 μg/mL)
SA1000 Salmonella CMY-2
  Ceftazidime MIC with cyclic boronic acid ester derivative: Z (MIC of greater than 8 μg/mL)
[1]
  Ceftazidime MIC with cyclic boronic acid ester derivative: Z (MIC of greater than 8 μg/mL)
[2]
  Ceftazidime MIC with cyclic boronic acid ester derivative: Z (MIC of greater than 8 μg/mL)
[3]
  Ceftazidime MIC with cyclic boronic acid ester derivative: Z (MIC of greater than 8 μg/mL)
[4]
  Ceftazidime MIC with cyclic boronic acid ester derivative: X (MIC of 1 μg/mL or less)
[5]
  Ceftazidime MIC with cyclic boronic acid ester derivative: Z (MIC of greater than 8 μg/mL)

## O=C(O)CC1CC[C@H](NC(=O)C2CC2)B(O)O1 (stereo partly drawn) [Compound 4, 2-((3R)-3-(cyclopropanecarboxamido)-2-hydroxy-1,2-oxaborinan-6-yl)acetic acid]
[6]
  MPC8: X (MPC8 of less than 0.16 μg/mL)
SA1000 Salmonella CMY-2
  Ceftazidime MIC with cyclic boronic acid ester derivative: Y (MIC of greater than 1 μg/mL to 8 μg/mL)
[1]
  Ceftazidime MIC with cyclic boronic acid ester derivative: Y (MIC of greater than 1 μg/mL to 8 μg/mL)
[2]
  Ceftazidime MIC with cyclic boronic acid ester derivative: Z (MIC of greater than 8 μg/mL)
[3]
  Ceftazidime MIC with cyclic boronic acid ester derivative: Z (MIC of greater than 8 μg/mL)
[4]
  Ceftazidime MIC with cyclic boronic acid ester derivative: X (MIC of 1 μg/mL or less)
[5]
  Ceftazidime MIC with cyclic boronic acid ester derivative: Z (MIC of greater than 8 μg/mL)
KPC-3, lysate of EC1007 [7]
  IC50: < 0.415 µM

## O=C(O)C[C@@H]1CC[C@H](NC(=O)Cc2cccs2)B(O)O1 [Compound 5, 2-((3R,6S)-2-hydroxy-3-(2-(thiophen-2-yl)acetamido)-1,2-oxaborinan-6-yl)acetic acid]
[8]; Sprague-Dawley, rat, plasma, male SD rats, IV, 20 mg/kg
  half-life: 1.56 h
[8]; Sprague-Dawley, rat, plasma, male SD rats, PO, 50 mg/kg
  half-life: 1.55 h
[8]; Sprague-Dawley, rat, plasma, male SD rats, PO, 50 mg/kg, read-out: AUC
  AUC: 810 ng·h/mL
[8]; Sprague-Dawley, rat, plasma, male SD rats, PO, 50 mg/kg, read-out: CL/F (converted)
  CL/F: 1010 mL/min/kg
[8]; Sprague-Dawley, rat, plasma, male SD rats, PO, 50 mg/kg, read-out: Cmax
  Cmax: 290 ng/mL
[8]; male SD rats, IV, 20 mg/kg
  AUC: 12150 ng·h/mL
  CL/F: 27.5 mL/min/kg
  Cmax: 19820 ng/mL
[8]; male SD rats, IV, 50 mg/kg
  AUC: 28190 ng·h/mL
  CL/F: 29.5 mL/min/kg
  Cmax: 45930 ng/mL
  T1/2: 4.53 h
[8]; rats, 50 mg/kg orally in saline
  oral absorption: not orally absorbed
[8]; rats, intravenous 20 or 50 mg/kg
  PK linearity: linear PK
[9]
  MPC4 CTX-M-14 KP1005: Z (key: X: MPC@4 of less than 2 μg/mL; Y: MPC@4 of 2 μg/mL to 10 μg/mL; Z: MPC@4 of greater than 10 μg/mL)
  MPC4 CTX-M-15 KP1009: Z (key: X: MPC@4 of less than 2 μg/mL; Y: MPC@4 of 2 μg/mL to 10 μg/mL; Z: MPC@4 of greater than 10 μg/mL)
  MPC4 SHV-5 ec308: Z (key: X: MPC@4 of less than 2 μg/mL; Y: MPC@4 of 2 μg/mL to 10 μg/mL; Z: MPC@4 of greater than 10 μg/mL)
  MPC4 SHV-12 KP1010: Z (key: X: MPC@4 of less than 2 μg/mL; Y: MPC@4 of 2 μg/mL to 10 μg/mL; Z: MPC@4 of greater than 10 μg/mL)
  MPC4 SHV-18 KP1012: Z (key: X: MPC@4 of less than 2 μg/mL; Y: MPC@4 of 2 μg/mL to 10 μg/mL; Z: MPC@4 of greater than 10 μg/mL)
  MPC4 TEM-10 EC1009: Z (key: X: MPC@4 of less than 2 μg/mL; Y: MPC@4 of 2 μg/mL to 10 μg/mL; Z: MPC@4 of greater than 10 μg/mL)
  MPC4 TEM-10 ec302: Z (key: X: MPC@4 of less than 2 μg/mL; Y: MPC@4 of 2 μg/mL to 10 μg/mL; Z: MPC@4 of greater than 10 μg/mL)
  MPC4 TEM-26 ec304: Z (key: X: MPC@4 of less than 2 μg/mL; Y: MPC@4 of 2 μg/mL to 10 μg/mL; Z: MPC@4 of greater than 10 μg/mL)
[10]
  MPC8: X (MPC8 of less than 0.16 μg/mL)
SA1000 Salmonella CMY-2
  Ceftazidime MIC with cyclic boronic acid ester derivative: Y (MIC of greater than 1 μg/mL to 8 μg/mL)
[1]
  Ceftazidime MIC with cyclic boronic acid ester derivative: Y (MIC of greater than 1 μg/mL to 8 μg/mL)
[2]
  Ceftazidime MIC with cyclic boronic acid ester derivative: Y (MIC of greater than 1 μg/mL to 8 μg/mL)
[3]
  Ceftazidime MIC with cyclic boronic acid ester derivative: Z (MIC of greater than 8 μg/mL)
[4]
  Ceftazidime MIC with cyclic boronic acid ester derivative: X (MIC of 1 μg/mL or less)
[5]
  Ceftazidime MIC with cyclic boronic acid ester derivative: Z (MIC of greater than 8 μg/mL)

## O=C(O)C[C@@H]1CC[C@H](NC(=O)Cc2ccccc2)B(O)O1 [Compound 6, 2-((3R,6S)-2-hydroxy-3-(2-phenylacetamido)-1,2-oxaborinan-6-yl)acetic acid]
[10]
  MPC8: X (MPC8 of less than 0.16 μg/mL)
SA1000 Salmonella CMY-2
  Ceftazidime MIC with cyclic boronic acid ester derivative: X (MIC of 1 μg/mL or less)
[1]
  Ceftazidime MIC with cyclic boronic acid ester derivative: Y (MIC of greater than 1 μg/mL to 8 μg/mL)
[2]
  Ceftazidime MIC with cyclic boronic acid ester derivative: Y (MIC of greater than 1 μg/mL to 8 μg/mL)
[3]
  Ceftazidime MIC with cyclic boronic acid ester derivative: Z (MIC of greater than 8 μg/mL)
[4]
  Ceftazidime MIC with cyclic boronic acid ester derivative: X (MIC of 1 μg/mL or less)
[5]
  Ceftazidime MIC with cyclic boronic acid ester derivative: Z (MIC of greater than 8 μg/mL)

## Cl.N[C@H]1CCC(CC(=O)O)OB1O (stereo partly drawn) [Compound 7, 2-((3R)-3-amino-2-hydroxy-1,2-oxaborinan-6-yl)acetic acid hydrochloride]
KPC-3, lysate of EC1007 [7]
  IC50: > 4.77 µM
KPC-3, lysate of EC1007 [11]
  IC50: > 4.77 µM
